{
  "source": "paper PMC5045374",
  "about": "(Oncotarget, 2016)",
  "key": {"[1]": {"test_system": "CLB-BAR (ALK-Δ4-11, ALK addicted) neuroblastoma cells", "experiment": "Proliferation assay (resazurin cell viability), CLB-BAR", "assay_type": "cell-based", "settings": "Homo sapiens, 72 hours, read-out: IC50 (cell growth)", "method": "(§1) Cells were seeded at 15,000 per well with serial dilutions of the indicated inhibitors. After 72 hours cell viability was assessed by resazurin (Sigma, Sweden). IC50 values were calculated with GraphPad Prism 6.0 by fitting data to a log (inhibitor concentration) vs. normalized response (variable slope) equation. Each experiment was performed in duplicate and repeated at least three times."}, "[2]": {"test_system": "CLB-GE (ALK-F1174V, ALK addicted) neuroblastoma cells", "experiment": "Proliferation assay (resazurin cell viability), CLB-GE", "assay_type": "cell-based", "settings": "Homo sapiens, 72 hours, read-out: IC50 (cell growth)", "method": "as §1"}, "[3]": {"test_system": "IMR32 (ALK-WT, non-ALK addicted) neuroblastoma cells", "experiment": "Proliferation assay (resazurin cell viability), IMR32", "assay_type": "cell-based, human", "settings": "IMR32, 72 hours", "method": "as §1"}, "[4]": {"test_system": "CLB-PE (ALK-WT, non-ALK addicted) neuroblastoma cells", "experiment": "Proliferation assay (resazurin cell viability), CLB-PE", "assay_type": "cell-based, human", "settings": "72 hours", "method": "as §1"}, "ALK mutants": {"test_system": "ALK mutants", "experiment": "Neurite outgrowth assay in PC12 cells, ALK mutants", "assay_type": "cell-based, human", "method": "PC12 cells (2 x10^6) co-transfected, in 100 μl of Ingenio electroporation solution (Minus Bio LCC), with pEGFPN1 (Clonetech) (0.5 ng) and ALK-mutant (0.75 ng) or ALK-wt (0.75 ng) as indicated were seeded sparingly into 24-well plates. ALK-wild type was stimulated with 1 μg/ml mAb31. After 48 hours post transfection, the fraction of GFP-positive and neurite carrying cells versus GFP-positive cells were analyzed under a Zeiss Axiovert 40 CFL microscope. A cell was considered as neurite-carrying if it had neurite(s) that reached at least twice the length of the diameter of a normal cell body. The experiments were performed at least three times in triplicates."}, "CLB-BAR cells": {"test_system": "CLB-BAR cells", "experiment": "Xenograft neuroblastoma model in vivo", "design": "species or system BalbC/NUDE mice", "text": "In the first investigation mice (n=3) were employed and in the second investigation mice (n=5) were employed. […] In the second investigation where 5 mice were employed a subset of mice (n=2) were released from treatment after 14 days, for a further 8 days (blue curve). […] C. […] Data are means +/− SE from 8 tumours, p values indicated; Student's t test.\nFemale Balbc/nude mice (Charles River, Germany) at 5-6 weeks age were maintained in a pathogen-free environment. For xenografts, 2.5 million CLB-BAR cells (MYCN amplified, ALK (Δ4-11) amplified) were injected subcutaneously. Once tumor volume achieved about 50mm^3, drug was given at 50 mg/kg body weight, by oral gavage, once daily, continuously for 14 days. Mice were grouped by tumor volume randomly. Tumor volume was calculated with the following equation: V=0.5236×L×W^2 (V=volume, L=longest, W=width).\nMice were sacrificed and tumors were collected. Tumors were fixed in 4% PFA, followed by 15% and 30% sucrose in PBS. Tumors were embedded in OCT compound (VWR chemicals) and frozen at −80°C. […] Secondary antibodies (Cell Signaling Tech., Danver, MA) were applied for 2 hours at room temperature. Impact DAB (Vector Laboratories, SK 4105) was employed for staining followed by hematoxylin cross-staining (Sigma-Aldrich). After mounting sections, images were taken using an Axio zoom V16 stereo microscope (Zeiss)."}, "ALK-positive NSCLC": {"test_system": "ALK-positive NSCLC", "settings": "cited from earlier work"}, "[5]": {"settings": "inferred from CNS responses in NSCLC patients; cited from earlier work"}, "[6]": {"test_system": "neuroblastoma tumor growth", "settings": "orthotopic xenograft tumor growth and TH-ALKF1174L/TH-MYCN mouse model; cited from earlier work"}, "[7]": {"settings": "immunoblotting, vs control group"}},
  "data": [
    {"smiles": "COc1cc(N2CCC(N3CCN(C)CC3)CC2)ccc1Nc1ncc(Cl)c(Nc2ccccc2P(C)(C)=O)n1", "note": "[brigatinib]", "values": [
      {"measurement": "IC50", "setting": "[1]", "result": "0.0753 ± 0.00889", "unit": "µM"},
      {"measurement": "IC50", "setting": "[2]", "result": "0.1 ± 0.0175", "unit": "µM"},
      {"measurement": "inhibition of cell growth", "setting": "[3]", "result": "Neither brigatinib nor crizotinib was able to inhibit growth"},
      {"measurement": "inhibition of cell growth", "setting": "[4]", "result": "Neither brigatinib nor crizotinib was able to inhibit growth"},
      {"measurement": "block of neurite outgrowth compared with crizotinib", "setting": "ALK mutants; ALK-G1269A, ALK-R1275 and ALK-R1192P, brigatinib 15 and 30 nM vs crizotinib 250 nM", "result": "more efficiently than crizotinib"},
      {"measurement": "neurite outgrowth of all tested ALK mutants", "setting": "ALK mutants; PC12 cells, 48 hours", "result": "could abrogate neurite outgrowth"},
      {"measurement": "tumor weight", "setting": "CLB-BAR cells; 50 mg/kg once daily oral gavage, 14 days, vs controls, p=0.01", "result": "significantly reduced"},
      {"measurement": "tumor volume / tumor growth", "setting": "CLB-BAR cells; 50 mg/kg once daily oral gavage, 14 days, vs vehicle, p=0.0004", "result": "considerably inhibits proliferation of tumor growth"},
      {"measurement": "side effect in vivo", "setting": "CLB-BAR cells; 50 mg/kg once daily, 14 days", "result": "no obvious side effect"},
      {"measurement": "body weight of mice", "setting": "CLB-BAR cells; 50 mg/kg once daily, 14 days, p=0.9", "result": "did not show any variation"},
      {"measurement": "MYCN protein levels in tumor material", "setting": "CLB-BAR cells; [7]", "result": "decreased protein levels"},
      {"measurement": "phospho-ALK levels in tumor material", "setting": "CLB-BAR cells; [7]", "result": "decreased phospho-ALK levels"},
      {"measurement": "phosphorylated ERK5 and AKT in tumor material", "setting": "CLB-BAR cells; [7]", "result": "reduced phosphorylation"},
      {"measurement": "total ALK protein levels in tumor material", "setting": "CLB-BAR cells; [7]", "result": "No obvious change"},
      {"measurement": "tumor volume/growth after discontinuation of treatment", "setting": "CLB-BAR cells; treatment discontinued after 14 days, for 8 days, n=2", "result": "increase in tumor volume/growth"},
      {"measurement": "Ki-67 proliferation marker in excised tumor", "setting": "CLB-BAR cells; vs controls, p=0.0005", "result": "significantly reduced proliferation"},
      {"measurement": "patients with non-measureable CNS lesions with disappearance of all lesions", "setting": "ALK-positive NSCLC; 8/26 patients", "result": 31, "unit": "%"},
      {"measurement": "patients responding to treatment", "setting": "ALK-positive NSCLC; crizotinib refractory ALK-positive NSCLC patients", "result": "about 72%"},
      {"measurement": "response in patients with baseline CNS metastases", "setting": "ALK-positive NSCLC; radiological review, 6/12 patients", "result": 50, "unit": "%"},
      {"measurement": "blood-brain barrier penetration", "setting": "[5]", "result": "able to penetrate the blood-brain barrier"}
    ]},
    {"smiles": "C[C@@H](Oc1cc(-c2cnn(C3CCNCC3)c2)cnc1N)c1c(Cl)ccc(F)c1Cl", "note": "[crizotinib]", "values": [
      {"measurement": "efficacy as a single agent treatment", "setting": "[6]", "result": "limited efficacy"}
    ]}
  ]
}
